# Laboratory results reported in patent US20120015925A1, “NOVEL BENZOTHIAZEPINE AND BENZOTHIEPINE COMPOUNDS” (ASAHI KASEI PHARMA CORPORATION, priority 2004, published 2012).
# What was measured:
# [1] = system: male beagle dogs; assay: Effect of combination with pravastatin on plasma total cholesterol levels in dogs; assay type: in vivo, dog
# Description: The effect of the combination of the compounds described in Example with pravastatin (HMG-CoA reductase inhibitor) on plasma cholesterol levels in dogs was examined.
# To male beagle dogs (supplied from Kitayama Labes, body weight 9 to 13 kg), usual solid feedstuff (DS-A: Oriental Yeast Co., Ltd.) was given once daily at 13:00 to 14:00. The light was turned on from 7:00 to 19:00 as a light period, and the remaining was defined as a dark period. Water was given ad libitum. In the morning in the week prior to the administration, the blood was collected with heparin from forearm cephalic vein, and plasma was collected by centrifugation. The total cholesterol level of this plasma was measured using the commercially available cholesterol level measurement kit by the enzymatic method (Cholesterol-E Test Wako). The dogs were grouped so that the total cholesterol levels were almost equal. Sodium pravastatin (1 mg/kg, Sankyo) alone or 3 mg/kg of the compound described in each of Examples alone or the combination thereof was orally administered once daily just before feeding for 7 days. Pravastatin was dissolved in distilled water, and the compound described in Example was suspended in 0.5% methylcellulose solution for administration. On the day after the final administration, the blood was collected from the forearm cephalic vein under starving, to which plasma was obtained. The total cholesterol level therein was measured by the same way. As a result, the total cholesterol level in the plasma was reduced by 7 mg/dL (6%) by orally administering 1 mg/kg/day of pravastatin for 7 days. The total cholesterol level in the plasma was reduced by […] (3 to 8%) by orally administering 3 mg/kg/day of the compound described in each of Examples for 7 days. When pravastatin and the compound described in each of Examples were co-administered at this dosages, the total cholesterol in the plasma was reduced by 14 to 24 mg/dL (12 to 20%). The reduction rate of the total cholesterol level was larger in the co-administration with the compound described in Example than in the administration of pravastatin alone, and the augmented effect by the co-administration was observed.
# [2] = system: Caco-2 cells; assay: Facilitation effect on permeability of combined compound (pravastatin, atorvastatin) through Caco-2 cells
# Procedure: The permeability through Caco-2 cells was measured by the same way as in Test Example 15.
# It was examined whether the permeability coefficient of the combined compound was changed in the presence of the compound described in Examples or the compound in Comparative Examples.
# [3] = pravastatin 1 mg/kg alone, oral once daily for 7 days, vehicle 1
structure (smiles),measurement,setting,value
"CC[C@H](C)C(=O)O[C@H]1C[C@H](O)C=C2C=C[C@H](C)[C@H](CC[C@@H](O)C[C@@H](O)CC(=O)O)[C@H]21 [pravastatin, reference compound]",plasma total cholesterol BEFORE TREATMENT,"[1]; pravastatin 1 mg/kg alone group, baseline, N=4, mean±standard error",114 ± 6 mg/dL
same,plasma total cholesterol AFTER TREATMENT,"[1]; pravastatin 1 mg/kg alone, oral once daily for 7 days, N=4, mean±standard error",106 ± 5 mg/dL
same,plasma total cholesterol BEFORE TREATMENT − AFTER TREATMENT,[1]; [3],7 mg/dL
same,reduction rate with respect to the data before administration (number in parenthesis),[1]; [3],6
same,total cholesterol level in the plasma reduced by,"[1]; pravastatin alone 1 mg/kg/day oral, 7 days",7 mg/dL
same,"total cholesterol level in the plasma, reduction rate","[1]; pravastatin alone 1 mg/kg/day oral, 7 days, with respect to before administration",6%
same,RATE OF INCREASE (%),[2]; statin alone (reference = 100),100%
same,[…] (PERMEATION × 10^−6 cm/s),"[2]; statin alone, 25 μM, 37° C., 2 hours",0.33 × 10^−6 cm/s
